# Measurements taken from ChEMBL document CHEMBL1155431, “Antimicrobial activity of long-chain (E)-3-alken-2-ones” (2010).
# The source made the active and inactive calls. The rule behind the calls is not given here.
# Assays:
# [1] = system: Malassezia; test: Antimicrobial activity against Pityrosporum ovale ATCC 14521 after 3 days by two fold serial broth dilution method; type: functional; details: ATCC 14521, 72 h
# [2] = system: Saccharomyces cerevisiae; test: Antimicrobial activity against Saccharomyces cerevisiae ATCC 7754 after 2 days by two fold serial broth dilution method; type: functional, organism-based
# [3] = system: Klebsiella aerogenes; test: Antimicrobial activity against Enterobacter aerogenes ATCC 13048 after 2 days by two fold serial broth dilution method; type: functional, organism-based
# [4] = system: Escherichia coli; test: Antimicrobial activity against Escherichia coli ATCC 9637 after 2 days by two fold serial broth dilution method; type: functional, organism-based
# [5] = system: Pseudomonas aeruginosa; test: Antimicrobial activity against Pseudomonas aeruginosa ATCC 10145 after 2 days by two fold serial broth dilution method; type: functional, organism-based
SMILES,MIC [1],other results
CCCCCCCC/C=C/C(C)=O,100 µg/mL,–
CCCCCCCCCCC/C=C/C(C)=O,400 µg/mL,–
CCCCCCCCCCCCC/C=C/C(C)=O,> 800 µg/mL,–
CCCCCCCCCCCC/C=C/C(C)=O,> 800 µg/mL,–
CCCCCCCCCC/C=C/C(C)=O,100 µg/mL,–
CCCCCCCCC/C=C/C(C)=O,100 µg/mL,Activity [2]: inactive; Activity [3]: inactive; Activity [4]: inactive; Activity [5]: inactive
CCCCCCC/C=C/C(C)=O,100 µg/mL,–
